Data set [1] has as its system MCF7. Kind of data set: Antiproliferative activity against human MCF7 cells after 72 hrs by MTT assay. It is filed as functional, cell-based. The settings on record: MCF7, 72 h.
Data set [2] concerns Calf thymus DNA. Kind of data set: Binding affinity to calf thymus DNA assessed as change in melting temperature at drug/DNA ratio of 0.5 by spectrophotmetric method. It is filed as nucleic-acid assay. The settings on record: Bos taurus.
In data set [3] the test system is BJ. Kind of data set: Antiproliferative activity against human BJ cells after 72 hrs by MTT assay. It is filed as cell-based.
A short description of data set [4]: Drug uptake in nucleus of human Caki2 cells at 50 uM measured after 5 hrs by Phalloidin CruzFluorTM 488 conjugate/propidium iodide staining based fluorescence microscopic analysis. The conditions noted are these: caki-2, 5 h. It is filed as ADME, subcellular.
The nature of data set [5]: Drug uptake in human Caki2 cells at 50 uM measured after 5 hrs by Phalloidin CruzFluorTM 488 conjugate/propidium iodide staining based fluorescence microscopic analysis. It is filed as ADME, cell-based. The settings on record: caki-2, 5 h.
The test system of data set [6] is Calf thymus DNA. Kind of data set: Binding affinity to calf thymus DNA assessed as change in melting temperature at drug/DNA ratio of 1 by spectrophotmetric method. It is filed as nucleic-acid assay. The settings on record: Bos taurus.
Data set [7] can be described thus: Drug uptake in cytoplasm of human Caki2 cells at 50 uM measured after 5 hrs by Phalloidin CruzFluorTM 488 conjugate/propidium iodide staining based fluorescence microscopic analysis. The conditions noted are these: caki-2, 5 h. It is filed as ADME, subcellular.
For data set [8], the system named is SW-620. Kind of data set: Antiproliferative activity against human SW620 cells after 72 hrs by MTT assay. It is filed as functional, cell-based. The settings on record: SW-620, 72 h.
Data set [9] concerns HepG2. Kind of data set: Antiproliferative activity against human HepG2 cells after 72 hrs by MTT assay. It is filed as functional, cell-based. The conditions noted are these: HepG2, 72 h.
The subject of data set [10] is HeLa. Kind of data set: Antiproliferative activity against human HeLa cells after 72 hrs by MTT assay. It is filed as functional, cell-based.
Data set [11] concerns CAKI-2. Kind of data set: Cytotoxicity against human Caki2 cells after 72 hrs by MTT assay. It is filed as functional, cell-based. The settings on record: CAKI-2, 72 h.
In data set [12] the test system is Calf thymus DNA. Kind of data set: Binding affinity to calf thymus DNA at 50 uM by circular dichroism spectral analysis. It is filed as nucleic-acid assay. The settings on record: Bos taurus.
Data set [13] addresses T1, DNA topoisomerase 1 (Homo sapiens) (UniProt P11387).
T1 sequence (whole entry): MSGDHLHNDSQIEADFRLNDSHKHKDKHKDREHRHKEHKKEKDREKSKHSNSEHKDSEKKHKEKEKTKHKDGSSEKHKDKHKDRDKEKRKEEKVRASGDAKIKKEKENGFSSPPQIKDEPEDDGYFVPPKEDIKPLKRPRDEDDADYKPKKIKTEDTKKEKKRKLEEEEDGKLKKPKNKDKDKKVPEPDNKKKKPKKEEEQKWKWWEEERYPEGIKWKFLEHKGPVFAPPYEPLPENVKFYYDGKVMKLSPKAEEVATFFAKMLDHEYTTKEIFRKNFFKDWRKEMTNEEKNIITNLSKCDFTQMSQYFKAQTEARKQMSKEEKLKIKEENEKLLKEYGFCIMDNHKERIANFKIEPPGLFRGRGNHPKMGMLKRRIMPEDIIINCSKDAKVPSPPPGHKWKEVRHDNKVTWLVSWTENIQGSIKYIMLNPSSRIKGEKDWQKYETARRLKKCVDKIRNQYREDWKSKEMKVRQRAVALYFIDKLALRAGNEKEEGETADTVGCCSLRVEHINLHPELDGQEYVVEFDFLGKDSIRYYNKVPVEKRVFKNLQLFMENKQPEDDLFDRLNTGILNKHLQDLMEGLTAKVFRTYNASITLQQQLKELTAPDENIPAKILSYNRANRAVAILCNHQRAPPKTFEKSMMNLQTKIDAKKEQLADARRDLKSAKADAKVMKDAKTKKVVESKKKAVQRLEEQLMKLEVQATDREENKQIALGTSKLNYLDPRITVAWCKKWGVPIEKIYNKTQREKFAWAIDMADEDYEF
Kind of data set: Inhibition of human topoisomerase1-mediated DNA relaxation assessed as DNA intercalation at 5 to 50 uM using supercoiled pUC19 as substrate pretreated with substrate for 45 mins followed by enzyme addition measured by agarose gel electrophoresis.

Data set [14] has as its system Calf thymus DNA. Kind of data set: Binding affinity to calf thymus DNA assessed as change in melting temperature at drug/DNA ratio of 0.25 by spectrophotmetric method. The conditions noted are these: Bos taurus. It is filed as nucleic-acid assay.

Structures are written as SMILES. Calls of active or inactive are those of the source. No cut-off for these calls is given here.

As for `c1ccc2c(c1)CN(c1nc3ccccc3s1)/C2=N/c1nc2ccccc2s1`, the IC50 in data set [1] was determined as 0.08 µM; in [3] it was 4.87 µM; in [8], 6.98 µM; in data set [9], 0.82 µM; in [10] it was 4.68 µM; in data set [11] it was 11.1 µM. The figures for the ΔTm in [2] and in data set [6] were -1.3 °C and -2.2 °C, respectively. Also, the Drug uptake result in data set [4], in data set [5] and in data set [7] was “Active” throughout. Moreover, the outcome in data set [12] was inactive.
On to `CC(C)NC(=N)c1ccc2nc(N3Cc4ccccc4C3=O)[nH]c2c1`, for which the IC50 in data set [1] is 0.93 µM; in data set [3] it was 5.72 µM; in data set [8], 71 µM; in data set [9], above 100 µM; in data set [10], 84.3 µM.
In the same order, the values of `N=C(N)c1ccc2nc(N3Cc4ccccc4C3=O)[nH]c2c1` are above 100 µM, 46.9 µM, above 100 µM, 91.1 µM and 52.2 µM.
Consider `CC(C)NC(=N)c1ccc2nc(/N=C3\c4ccccc4CN3c3nc4ccc(C(=N)NC(C)C)cc4s3)sc2c1.Cl.Cl`, for which the IC50 in data set [1] amounted to 90.1 µM; in data set [3], 4.72 µM; in [8] it was 49.5 µM; in data set [9], 68.8 µM; in data set [10] it was 52.9 µM; in [11] it was 40 µM. Moreover, the ΔTm in data set [2] was 18 °C; in data set [14], 12.7 °C. In addition, the “inhibition (qualitative)” value in data set [13] was “Active”. Also, the Drug uptake result in data set [4], in data set [5] and in data set [7] was “Active” in each case.
Regarding `N#Cc1ccc2nc(/N=C3\c4ccccc4CN3c3nc4ccc(C#N)cc4s3)sc2c1`, the values for the ΔTm in data set [2] and in data set [6] were -1.1 °C and -0.7 °C, respectively. Further, the Drug uptake result in data set [4], in data set [5] and in data set [7] was “Active” throughout. This compound also yielded an IC50 in data set [11] of 21.7 µM. Also, the outcome in [12] was inactive.
Regarding `N#Cc1ccc2nc(N3Cc4ccccc4C3=O)[nH]c2c1`, the IC50 in [1] is 5.06 µM; in data set [3], 15.8 µM; in [8], above 100 µM; in data set [9], 10 µM; in [10], 24.1 µM.
Regarding `c1ccc2c(c1)CN(c1nc3ccccc3[nH]1)/C2=N/c1nc2ccccc2[nH]1`, the IC50 in data set [1] is 7.47 µM; in data set [3], 22.4 µM; in [8] it was above 100 µM; in [9], 7.85 µM; in data set [10] it was 9.32 µM. In addition, the ΔTm in [2] is -0.7 °C; in data set [6], -0.5 °C; in data set [14] it was -0.6 °C.
As for `N#Cc1ccc2nc(N3Cc4ccccc4C3=O)sc2c1`, the IC50 in data set [1] is 9.93 µM; in data set [3], 44.5 µM; in data set [8], above 100 µM; in [9], 61.5 µM; in [10], 54.7 µM.
On to `N#Cc1ccc2nc(/N=C3\c4ccccc4CN3c3nc4ccc(C#N)cc4[nH]3)[nH]c2c1`, for which the IC50 was 0.02 µM in data set [1]; above 100 µM in [3]; 70 µM in [8]; 17.9 µM in data set [9]; 75.7 µM in data set [10]; above 100 µM in [11]. Also, the results for the ΔTm in data set [2] and in data set [6] were -0.4 °C and -0.5 °C, respectively. Moreover, the Drug uptake entry in data set [4], in [5] and in [7] was “Active” each time. Further, in data set [12], the result was inactive.
Turning to `O=C1c2ccccc2CN1c1nc2ccc(C3=NCCN3)cc2[nH]1`, the IC50 in [1] was 2.9 µM; in data set [3], 4.71 µM; in data set [8] it was 8.67 µM; in [9] it was 16.6 µM; in [10], 6.12 µM.

The values are drawn from ChEMBL document CHEMBL4219121, “Synthesis, antitumor activity and DNA binding features of benzothiazolyl and benzimidazolyl substituted isoindolines” (Bioorg Med Chem, 2018).
